Consider six compounds from publication PMC12602503, “AaeAP2a, a scorpion-derived antimicrobial peptide, combats carbapenem-resistant Acinetobacter baumannii via membrane disruption and triggered metabolic collapse” (Frontiers in Microbiology, 2025).

Data set [1] has as its system A. baumannii ATCC 19606. The experiment in a line: microbe, parasite or virus in culture. Type of data set: cell-based, Acinetobacter baumannii. The note with it: for MIC: CLSI M100-ED34, MHB, triplicate; for Interpretation: CLSI interpretation of MIC. The method, then:
(§1) The inhibitory activity of the antimicrobial peptide was assessed using the broth microdilution method following the CLSI M100-ED34 standard ([Humphries et al., 2021]). A single colony of A. baumannii was isolated and inoculated into Mueller-Hinton Broth (MHB), then incubated overnight at 37 °C with agitation at 180 rpm. The overnight cultures were adjusted to a 0.5 McFarland turbidity standard, after which it was diluted 1:100 in MHB medium. […] A. baumannii ATCC 19606 served as the control strain, and the experiments were conducted in triplicate.

The test system of data set [2] is CRAB 236. Nature of the data set: microbe, parasite or virus in culture. The format is cell-based, Acinetobacter baumannii. The note with it: for Interpretation: CLSI interpretation of MIC. The method, then: as §1; on Interpretation: key: R, Resistant; I, Intermediate; S, Sensitive
Data set [3] has as its system Escherichia coli biofilms. The note with it: 1 × MIC; ref Luo et al., 2024; cited from earlier work. The text has this: In addition to […] the permeability of antimicrobial agents, bacterial biofilms, which rely on a complex matrix of extracellular polymeric substances, support the evolution of bacterial drug resistance, creating a protective barrier against drug-induced killing ([Verderosa et al., 2019]). AMPs have shown dual potential in meeting biofilm-related chronic infections: they can inhibit the initial stages of biofilm formation and eradicate mature biofilms. In this study, AaeAP2a, at a 4 × MIC, obtained an inhibition rate approaching 80% against biofilms formed by two strains of Acinetobacter ...

The subject of data set [4] is mouse erythrocytes. The experiment in a line: Hemolytic activity. Type of data set: cell-based. The note with it: 4% mouse erythrocyte suspension, 37 °C, 1 h, OD 540 nm. The method, then:
(§2) To systematically evaluate the biosafety of the antimicrobial peptide AaeAP2a, we assessed its hemolytic activity and cytotoxicity ([Liu et al., 2020a]; [Zhou F. et al., 2022]). A 4% (v/v) erythrocyte suspension was prepared from freshly collected anticoagulated mouse blood by repeatedly resuspending and washing the cells three times with phosphate-buffered saline (PBS), following the established protocol. […] In this test, 1% (v/v) Triton X-100 was used as the positive control. Three replicates per treatment group were used to study OD at 540 nm using a microplate reader. The cytotoxicity of AaeAP2a on human embryonic kidney 293 T cells was tested using the Cell Counting Kit - 8 (CCK-8). […] The CCK-8 assay was thus performed, with three replicates recorded for each concentration.

Data set [5] concerns human embryonic kidney 293 T cells. Nature of the data set: Cytotoxicity, CCK-8. Type of data set: cell-based. The note with it: 16 × MIC, 24 h. The method, then:
as §2

Data set [6] deals with T1, proteinase K (Parengyodontium album, UniProt P06873).
T1 construct: purchased Beyotime Biotechnology (China)
T1 sequence (P06873 106-384): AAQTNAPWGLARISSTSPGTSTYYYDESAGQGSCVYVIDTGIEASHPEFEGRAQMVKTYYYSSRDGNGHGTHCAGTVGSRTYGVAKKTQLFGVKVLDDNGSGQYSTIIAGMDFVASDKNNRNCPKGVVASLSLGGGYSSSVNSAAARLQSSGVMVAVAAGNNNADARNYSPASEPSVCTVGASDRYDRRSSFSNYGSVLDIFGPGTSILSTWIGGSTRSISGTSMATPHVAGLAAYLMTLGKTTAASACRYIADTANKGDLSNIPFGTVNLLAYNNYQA
The experiment in a line: Protease resistance, read out by MIC. The format is in vitro ADME. The note with it: proteinase K 0–100 μg/mL, 1 h, 37 °C; MIC vs ATCC 19606; triplicate. As for the experimental part:
(§3) We thoroughly examined the effects of storage at room temperature, repeated freeze–thaw cycles, temperature variations, pH levels, salt ions, urea, and protease treatment on the antimicrobial activity of peptide AaeAP2a ([Zhu et al., 2022]). Through 0 to 12 freeze–thaw iterations, AaeAP2a was incubated for 1 h at various temperatures (0, 25, 50, 75, and 100 °C) and pH values (3 to 11). Additionally, the peptide was incubated with four salt ions—NaCl, KCl, CaCl2, and MgCl2—at concentrations of […], as well as with urea at concentrations of […] for 1 h. Furthermore, AaeAP2a was treated with proteinase K or trypsin at concentrations ranging from 0 to 100 μg/mL (i.e., 0, 20, 40, 60, 80, and 100 μg/mL) for 1 h at 37 °C. The changes in its antimicrobial activity were quantitatively assessed using the MIC method. All assays were conducted in triplicate. […] Proteinase K, Trypsin, and Urea were obtained from Beyotime Biotechnology (China), while all other reagents were purchased from Macklin (China).

The test system of data set [7] is trypsin. Nature of the data set: Protease resistance, read out by MIC. Type of data set: in vitro ADME. The note with it: trypsin concentrations exceeding 40 μg/mL, 1 h, 37 °C; MIC vs ATCC 19606; triplicate. As for the experimental part:
as §3

The test system of data set [8] is horse erythrocytes. The note with it: 64 μg/mL; 2% horse erythrocyte suspension; ref Du et al.; cited from earlier work. The text has this: Safety and stability are essential prerequisites for the clinical application of pharmaceutical agents.
[9] abbreviates: Acinetobacter baumannii, ATCC19606, broth microdilution, read-out: MIC.
[10] abbreviates: CRAB 236, broth microdilution, CLSI M100-ED34, MHB, triplicate.

Values after ≈ are worked out from the molar mass of the structure shown. “Also recorded” adds a separate entry of the source. Read-outs that look alike come from different tables or passages of the source. No end group written: not given here.
Wherever Interpretation is given: key: R, Resistant; I, Intermediate; S, Sensitive.

Consider `CO/N=C(\C(=O)N[C@@H]1C(=O)N2C(C(=O)O)=C(CSc3nc(=O)c(=O)[nH]n3C)CS[C@H]12)c1csc(N)n1` [Ceftriaxone], for which the values for the MIC in data set [1] (setting [9]) and in data set [2] (Acinetobacter baumannii) were 16 µg/mL (≈ 28.9 µM) and 32 µg/mL (≈ 57.7 µM), respectively. Further, the Interpretation result in data set [1] and in data set [2] (CRAB 236) was “I” in each case.
Regarding `CNC(C)C1CCC(N)C(OC2C(N)CC(N)C(OC3OCC(C)(O)C(NC)C3O)C2O)O1` (centres unmarked) [Gentamicin], the MIC in data set [1] (setting [9]) was 1 µg/mL (≈ 2.09 µM); in data set [2] (Acinetobacter baumannii) it was > 32 µg/mL. The Interpretation entry in data set [1] is “S”; in data set [2] (CRAB 236), “R”.
In the same order, the values of `C[C@@H](O)[C@H]1C(=O)N2C(C(=O)O)=C(S[C@@H]3CN[C@H](C(=O)N(C)C)C3)[C@H](C)[C@H]12` [Meropenem] are 2 µg/mL (≈ 5.22 µM), 16 µg/mL (≈ 41.7 µM), “S” and “R”.
In the same order, the values of `CN(C)[C@@H]1C(O)=C(C(N)=O)C(=O)[C@@]2(O)C(O)=C3C(=O)c4c(O)cccc4[C@@](C)(O)[C@H]3C[C@@H]12` [Tetracycline] are 2 µg/mL (≈ 4.5 µM), 64 µg/mL (≈ 144 µM), “S” and “R”.
Regarding Colistin, the Interpretation entry in data set [1] and in data set [2] (CRAB 236) was “S” in each case. In addition, the figures for the MIC in data set [1] (broth microdilution) and in data set [2] (setting [10]) were 2 µg/mL and 0.5 µg/mL, respectively. Besides, in data set [3], the “Eradication efficiency against Escherichia coli biofilms” value is 35%.
As for FLFKLIPKAIKGLVKAIRK [AaeAP2a], the MIC in data set [1] (broth microdilution) is 3.125 µg/mL; in data set [2] (setting [10]), 6.25 µg/mL. Also, the figures for the Hemolysis in data set [4] (16 × MIC), in data set [4] (64 × MIC (200 μg/mL)) and in data set [8] were < 5%, < 5% and “complete lysis”, respectively. Further, the Cell viability in data set [5] is on record as > 90%. Besides, in data set [6], the “Resistance to proteinase K” value is “substantial resistance”. The “Activity after trypsin treatment” value in data set [7] is recorded as “markedly reduced; also recorded: diminished”.
